Assays:
[1] = test system: Epidermal growth factor receptor (Homo sapiens), P00533 [T790M]; settings: Compound concentration 1000.0 nM
[2] = target: Insulin-like growth factor 1 receptor (Homo sapiens) (UniProt P08069); settings: Compound concentration 1000.0 nM
[3] = target: Alpha-1D adrenergic receptor (Homo sapiens) (UniProt P25100); settings: Compound concentration 10.0 uM
[4] = target: Rho-associated protein kinase 1 (Homo sapiens) (UniProt Q13464); settings: Compound concentration 1000.0 nM
[5] = target: Mast/stem cell growth factor receptor Kit (Homo sapiens) (UniProt P10721); settings: Compound concentration 1000.0 nM
[6] = target: Dual specificity protein kinase CLK2 (Homo sapiens) (UniProt P49760); settings: Compound concentration 1000.0 nM
[7] = target: Cyclin-dependent kinase 9 (Homo sapiens) (UniProt P50750); settings: Compound concentration 1000.0 nM
[8] = target: Myosin light chain kinase (Homo sapiens) (UniProt Q32MK0); settings: Compound concentration 1000.0 nM
[9] = target: Ephrin type-B receptor 1 (Homo sapiens) (UniProt P54762); settings: Compound concentration 1000.0 nM
[10] = target: Hormonally up-regulated neu tumor-associated kinase (Homo sapiens) (UniProt P57058); settings: Compound concentration 1000.0 nM
[11] = target: 5-hydroxytryptamine receptor 1B (Homo sapiens) (UniProt P28222); settings: Compound concentration 10.0 uM
[12] = target: Mitogen-activated protein kinase 15 (Homo sapiens) (UniProt Q8TD08); settings: Compound concentration 1000.0 nM
[13] = target: Beta-1 adrenergic receptor (Homo sapiens, UniProt P08588); settings: Compound concentration 10.0 uM
[14] = target: NUAK family SNF1-like kinase 2 (Homo sapiens) (UniProt Q9H093); settings: Compound concentration 1000.0 nM
[15] = target: Tyrosine-protein kinase Tec (Homo sapiens) (UniProt P42680); settings: Compound concentration 1000.0 nM
[16] = test system: Tyrosine-protein kinase ABL1 (Homo sapiens), P00519 [Y253F]; settings: Compound concentration 1000.0 nM
[17] = target: Activin receptor type-2A (Homo sapiens) (UniProt P27037); settings: Compound concentration 1000.0 nM
[18] = target: Serine/threonine-protein kinase D3 (Homo sapiens) (UniProt O94806); settings: Compound concentration 1000.0 nM
[19] = target: Mitogen-activated protein kinase kinase kinase 4 (Homo sapiens) (UniProt Q9Y6R4); settings: Compound concentration 1000.0 nM
[20] = target: Casein kinase I isoform alpha (Homo sapiens) (UniProt P48729); settings: Compound concentration 1000.0 nM
[21] = test system: Tyrosine-protein kinase ABL1 (Homo sapiens), P00519 [F317L]; settings: Compound concentration 1000.0 nM
[22] = target: Tyrosine-protein kinase JAK3 (Homo sapiens) (UniProt P52333); settings: Compound concentration 1000.0 nM
[23] = target: Serine/threonine-protein kinase N2 (Homo sapiens) (UniProt Q16513); settings: Compound concentration 1000.0 nM
[24] = target: Proto-oncogene tyrosine-protein kinase Src (Homo sapiens) (UniProt P12931); settings: Compound concentration 1000.0 nM
[25] = target: 1-phosphatidylinositol 3-phosphate 5-kinase (Homo sapiens) (UniProt Q9Y2I7); settings: Compound concentration 1000.0 nM
[26] = target: Tyrosine-protein kinase Mer (Homo sapiens) (UniProt Q12866); settings: Compound concentration 1000.0 nM
Histamine H3 receptor = Histamine H3 receptor (Homo sapiens, UniProt Q9Y5N1); settings: Compound concentration 10.0 uM
[27] = target: Cyclin-dependent kinase 17 (Homo sapiens) (UniProt Q00537); settings: Compound concentration 1000.0 nM
[28] = target: Tyrosine-protein kinase JAK1 (Homo sapiens) (UniProt P23458); settings: Compound concentration 1000.0 nM
[29] = target: Ephrin type-B receptor 4 (Homo sapiens) (UniProt P54760); settings: Compound concentration 1000.0 nM
[30] = target: Casein kinase II subunit alpha' (Homo sapiens) (UniProt P19784); settings: Compound concentration 1000.0 nM
[31] = target: 5-hydroxytryptamine receptor 2C (Homo sapiens) (UniProt P28335); settings: Compound concentration 10.0 uM
[32] = target: Myosin-IIIb (Homo sapiens) (UniProt Q8WXR4); settings: Compound concentration 1000.0 nM
[33] = target: Casein kinase I isoform gamma-3 (Homo sapiens) (UniProt Q9Y6M4); settings: Compound concentration 1000.0 nM
[34] = test system: Mast/stem cell growth factor receptor Kit (Homo sapiens), P10721 [V559D]; settings: Compound concentration 1000.0 nM
[35] = target: Casein kinase I isoform alpha-like (Homo sapiens) (UniProt Q8N752); settings: Compound concentration 1000.0 nM
[36] = target: Tyrosine-protein kinase TXK (Homo sapiens) (UniProt P42681); settings: Compound concentration 1000.0 nM
[37] = target: Aurora kinase C (Homo sapiens) (UniProt Q9UQB9); settings: Compound concentration 1000.0 nM
[38] = test system: Tyrosine-protein kinase ABL1 (Homo sapiens), P00519 [F317I]; settings: Compound concentration 1000.0 nM
[39] = test system: Fibroblast growth factor receptor 3 (Homo sapiens), P22607 [G697C]; settings: Compound concentration 1000.0 nM
[40] = target: Receptor-type tyrosine-protein kinase FLT3 (Homo sapiens) (UniProt P36888); settings: Compound concentration 1000.0 nM
[41] = target: Non-receptor tyrosine-protein kinase TYK2 (Homo sapiens) (UniProt P29597); settings: Compound concentration 1000.0 nM
[42] = target: Ankyrin repeat and protein kinase domain-containing protein 1 (Homo sapiens) (UniProt Q8NFD2); settings: Compound concentration 1000.0 nM
[43] = target: Myosin light chain kinase 2, skeletal/cardiac muscle (Homo sapiens) (UniProt Q9H1R3); settings: Compound concentration 1000.0 nM
[44] = test system: Tyrosine-protein kinase ABL1 (Homo sapiens), P00519 [T315I]; settings: Compound concentration 1000.0 nM
[45] = target: Mitogen-activated protein kinase kinase kinase 20 (Homo sapiens) (UniProt Q9NYL2); settings: Compound concentration 1000.0 nM

Mitogen-activated protein kinase kinase kinase 4 (Homo sapiens), sequence (Q9Y6R4 whole entry, canonical isoform): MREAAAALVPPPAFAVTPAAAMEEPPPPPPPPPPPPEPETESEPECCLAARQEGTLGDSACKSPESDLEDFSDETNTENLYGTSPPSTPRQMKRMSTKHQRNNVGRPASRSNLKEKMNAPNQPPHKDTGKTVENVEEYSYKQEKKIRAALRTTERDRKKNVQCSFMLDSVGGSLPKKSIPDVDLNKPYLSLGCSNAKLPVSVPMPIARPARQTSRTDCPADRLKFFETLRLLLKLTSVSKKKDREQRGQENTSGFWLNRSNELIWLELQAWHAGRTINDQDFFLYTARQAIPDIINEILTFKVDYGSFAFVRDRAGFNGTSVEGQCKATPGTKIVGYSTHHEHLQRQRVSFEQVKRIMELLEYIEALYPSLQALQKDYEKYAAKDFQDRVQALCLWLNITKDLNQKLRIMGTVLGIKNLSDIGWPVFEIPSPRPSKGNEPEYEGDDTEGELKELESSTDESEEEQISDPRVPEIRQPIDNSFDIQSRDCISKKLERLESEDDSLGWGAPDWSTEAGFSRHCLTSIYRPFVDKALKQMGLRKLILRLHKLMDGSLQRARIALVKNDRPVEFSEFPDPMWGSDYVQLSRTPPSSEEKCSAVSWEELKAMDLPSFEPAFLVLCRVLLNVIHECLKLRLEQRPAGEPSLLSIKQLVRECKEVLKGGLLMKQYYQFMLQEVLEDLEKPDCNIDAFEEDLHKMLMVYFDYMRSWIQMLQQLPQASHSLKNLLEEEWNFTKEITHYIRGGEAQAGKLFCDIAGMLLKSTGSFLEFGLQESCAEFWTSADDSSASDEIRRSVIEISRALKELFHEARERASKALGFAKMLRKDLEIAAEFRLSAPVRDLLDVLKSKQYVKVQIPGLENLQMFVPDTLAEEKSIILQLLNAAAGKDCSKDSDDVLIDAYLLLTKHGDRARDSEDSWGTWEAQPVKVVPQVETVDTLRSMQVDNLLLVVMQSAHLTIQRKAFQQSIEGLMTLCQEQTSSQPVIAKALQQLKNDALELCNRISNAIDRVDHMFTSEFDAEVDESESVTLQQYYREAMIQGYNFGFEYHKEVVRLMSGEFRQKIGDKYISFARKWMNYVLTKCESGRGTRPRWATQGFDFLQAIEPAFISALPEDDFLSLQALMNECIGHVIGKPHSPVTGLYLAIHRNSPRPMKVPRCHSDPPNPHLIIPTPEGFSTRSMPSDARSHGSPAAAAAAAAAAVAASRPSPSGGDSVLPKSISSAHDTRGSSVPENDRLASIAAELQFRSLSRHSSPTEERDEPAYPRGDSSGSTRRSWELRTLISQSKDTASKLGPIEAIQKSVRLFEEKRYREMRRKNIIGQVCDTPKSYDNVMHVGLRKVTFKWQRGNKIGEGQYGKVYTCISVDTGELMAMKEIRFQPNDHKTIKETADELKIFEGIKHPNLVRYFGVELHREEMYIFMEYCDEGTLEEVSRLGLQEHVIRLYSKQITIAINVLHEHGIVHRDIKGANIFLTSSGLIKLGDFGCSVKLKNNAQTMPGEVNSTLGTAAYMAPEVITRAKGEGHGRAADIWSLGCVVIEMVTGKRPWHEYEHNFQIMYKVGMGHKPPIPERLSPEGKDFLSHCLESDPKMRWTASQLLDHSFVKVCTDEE
Myosin light chain kinase 2, skeletal/cardiac muscle (Homo sapiens), sequence (Q9H1R3 whole entry): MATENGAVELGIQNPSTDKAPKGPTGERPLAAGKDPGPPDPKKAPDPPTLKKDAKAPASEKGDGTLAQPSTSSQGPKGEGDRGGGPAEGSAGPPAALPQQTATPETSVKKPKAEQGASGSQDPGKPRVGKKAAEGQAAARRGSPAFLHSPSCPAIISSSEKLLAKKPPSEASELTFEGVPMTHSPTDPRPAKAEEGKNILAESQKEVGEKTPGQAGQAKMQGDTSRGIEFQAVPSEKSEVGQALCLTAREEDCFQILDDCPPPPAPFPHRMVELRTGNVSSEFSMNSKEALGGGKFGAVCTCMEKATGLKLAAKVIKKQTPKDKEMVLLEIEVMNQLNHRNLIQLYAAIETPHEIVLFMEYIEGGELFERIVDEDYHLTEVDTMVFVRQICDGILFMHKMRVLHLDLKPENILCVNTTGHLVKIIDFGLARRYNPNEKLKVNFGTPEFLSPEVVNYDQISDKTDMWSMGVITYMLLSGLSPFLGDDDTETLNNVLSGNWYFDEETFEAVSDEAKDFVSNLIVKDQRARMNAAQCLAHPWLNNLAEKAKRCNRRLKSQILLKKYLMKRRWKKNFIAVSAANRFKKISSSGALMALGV
Non-receptor tyrosine-protein kinase TYK2 (Homo sapiens), sequence (P29597 whole entry, the tested form may be a part): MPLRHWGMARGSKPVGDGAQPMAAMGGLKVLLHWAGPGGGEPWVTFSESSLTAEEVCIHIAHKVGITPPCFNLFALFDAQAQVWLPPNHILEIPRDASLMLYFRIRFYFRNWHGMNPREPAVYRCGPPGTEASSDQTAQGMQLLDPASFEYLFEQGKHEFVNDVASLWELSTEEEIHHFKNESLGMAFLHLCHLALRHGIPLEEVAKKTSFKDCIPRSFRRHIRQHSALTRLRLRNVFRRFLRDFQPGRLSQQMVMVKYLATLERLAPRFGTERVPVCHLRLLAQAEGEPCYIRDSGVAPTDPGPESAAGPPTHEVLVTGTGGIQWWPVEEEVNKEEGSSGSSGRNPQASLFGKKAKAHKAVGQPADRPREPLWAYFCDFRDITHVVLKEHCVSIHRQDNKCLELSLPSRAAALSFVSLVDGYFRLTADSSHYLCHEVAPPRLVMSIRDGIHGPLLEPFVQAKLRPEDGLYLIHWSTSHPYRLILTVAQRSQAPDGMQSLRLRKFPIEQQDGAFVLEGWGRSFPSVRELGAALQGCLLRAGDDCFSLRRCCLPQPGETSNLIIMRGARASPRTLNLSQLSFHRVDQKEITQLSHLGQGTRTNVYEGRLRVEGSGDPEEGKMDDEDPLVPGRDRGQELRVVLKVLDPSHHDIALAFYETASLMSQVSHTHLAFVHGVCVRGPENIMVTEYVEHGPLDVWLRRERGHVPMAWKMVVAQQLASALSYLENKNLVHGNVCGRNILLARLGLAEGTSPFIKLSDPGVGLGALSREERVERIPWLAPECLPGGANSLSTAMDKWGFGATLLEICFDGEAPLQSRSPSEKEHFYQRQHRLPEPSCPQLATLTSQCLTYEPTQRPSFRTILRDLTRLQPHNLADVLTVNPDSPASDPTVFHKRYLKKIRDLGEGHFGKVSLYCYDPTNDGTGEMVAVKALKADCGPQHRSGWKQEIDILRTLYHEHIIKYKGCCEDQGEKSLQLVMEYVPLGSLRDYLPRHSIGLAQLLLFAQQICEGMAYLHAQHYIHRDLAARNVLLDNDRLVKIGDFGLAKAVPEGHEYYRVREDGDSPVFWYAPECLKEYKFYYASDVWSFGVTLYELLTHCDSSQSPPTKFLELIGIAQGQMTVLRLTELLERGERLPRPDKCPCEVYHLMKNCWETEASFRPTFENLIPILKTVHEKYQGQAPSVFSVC
5-hydroxytryptamine receptor 2C (Homo sapiens), sequence (P28335 whole entry): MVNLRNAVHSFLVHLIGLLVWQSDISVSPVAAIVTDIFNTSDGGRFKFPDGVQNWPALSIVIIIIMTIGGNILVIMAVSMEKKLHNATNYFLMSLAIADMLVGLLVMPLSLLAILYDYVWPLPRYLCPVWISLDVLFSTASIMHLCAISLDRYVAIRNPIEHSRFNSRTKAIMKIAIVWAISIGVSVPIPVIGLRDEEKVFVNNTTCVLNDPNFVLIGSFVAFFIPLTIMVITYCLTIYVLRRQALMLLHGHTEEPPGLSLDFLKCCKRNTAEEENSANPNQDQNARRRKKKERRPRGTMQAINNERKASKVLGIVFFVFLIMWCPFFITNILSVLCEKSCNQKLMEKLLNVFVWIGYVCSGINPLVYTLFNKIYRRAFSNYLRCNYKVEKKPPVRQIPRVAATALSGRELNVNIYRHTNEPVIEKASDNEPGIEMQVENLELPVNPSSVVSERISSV
Proto-oncogene tyrosine-protein kinase Src (Homo sapiens), sequence (P12931 2-536 limits assumed): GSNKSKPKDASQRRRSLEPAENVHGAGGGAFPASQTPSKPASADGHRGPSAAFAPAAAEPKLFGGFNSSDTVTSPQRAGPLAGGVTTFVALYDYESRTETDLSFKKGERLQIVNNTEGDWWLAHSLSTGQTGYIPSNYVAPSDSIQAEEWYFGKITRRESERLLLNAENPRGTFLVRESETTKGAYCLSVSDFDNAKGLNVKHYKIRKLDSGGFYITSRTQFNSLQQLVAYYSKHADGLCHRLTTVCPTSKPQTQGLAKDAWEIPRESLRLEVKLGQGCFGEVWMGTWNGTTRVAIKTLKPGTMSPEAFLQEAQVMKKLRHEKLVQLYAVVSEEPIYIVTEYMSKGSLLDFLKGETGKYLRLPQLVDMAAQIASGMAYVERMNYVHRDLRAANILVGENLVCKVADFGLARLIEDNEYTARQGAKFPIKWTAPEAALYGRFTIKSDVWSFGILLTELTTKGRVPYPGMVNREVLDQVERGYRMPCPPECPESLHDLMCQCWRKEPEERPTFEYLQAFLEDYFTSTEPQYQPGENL
Cyclin-dependent kinase 17 (Homo sapiens), sequence (Q00537 whole entry, looked up): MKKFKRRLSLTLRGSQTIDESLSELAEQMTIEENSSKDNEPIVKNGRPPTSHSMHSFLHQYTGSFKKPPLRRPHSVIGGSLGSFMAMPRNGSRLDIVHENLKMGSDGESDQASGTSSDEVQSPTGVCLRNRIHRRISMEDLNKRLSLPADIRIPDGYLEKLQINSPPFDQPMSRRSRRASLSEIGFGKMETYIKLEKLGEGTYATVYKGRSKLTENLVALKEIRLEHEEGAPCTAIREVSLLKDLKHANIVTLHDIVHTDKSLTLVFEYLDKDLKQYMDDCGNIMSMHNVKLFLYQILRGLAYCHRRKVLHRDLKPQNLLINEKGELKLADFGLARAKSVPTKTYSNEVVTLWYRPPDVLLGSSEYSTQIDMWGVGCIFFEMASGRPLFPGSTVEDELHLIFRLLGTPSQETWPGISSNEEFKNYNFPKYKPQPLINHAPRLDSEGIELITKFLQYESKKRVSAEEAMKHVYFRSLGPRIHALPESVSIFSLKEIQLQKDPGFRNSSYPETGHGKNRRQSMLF

CC(=O)C1=C(C)N(c2cccc(C(F)(F)F)c2)C(=O)N[C@@H]1c1ccc(C#N)nc1 [BAY-678]
residual activity [1]: 67.2%
residual activity [2]: 100%
inhibition [3]: 3.11%
residual activity [4]: 100%
residual activity [5]: 83.8%
residual activity [6]: 100%
residual activity [7]: 100%
residual activity [8]: 100%
residual activity [9]: 100%
residual activity [10]: 80.1%
inhibition [11]: 6.69%
residual activity [12]: 100%
inhibition [13]: 60%
residual activity [14]: 100%
residual activity [15]: 100%
residual activity [16]: 100%
residual activity [17]: 85.7%
residual activity [18]: 78%
residual activity [19]: 100%
residual activity [20]: 91.5%
residual activity [21]: 97.1%
residual activity [22]: 70.5%
residual activity [23]: 96.3%
residual activity [24]: 95.9%
residual activity [25]: 90%
residual activity [26]: 100%
inhibition (Histamine H3 receptor): 50%
residual activity [27]: 100%
residual activity [28]: 100%
residual activity [29]: 100%
residual activity [30]: 75.7%
inhibition [31]: -2.88%
residual activity [32]: 78.3%
residual activity [33]: 100%
residual activity [34]: 100%
residual activity [35]: 100%
residual activity [36]: 100%
residual activity [37]: 100%
residual activity [38]: 100%
residual activity [39]: 100%
residual activity [40]: 82.9%
residual activity [41]: 94.9%
residual activity [42]: 100%
residual activity [43]: 100%
residual activity [44]: 100%
residual activity [45]: 96.9%

Source: ChEMBL document CHEMBL4507272 (2021)
